Experimental data: patent US12139488B2, “Pyrido[3,2-d]pyrimidine compounds uses thereof for treating a proliferative disease” (Universite de Montreal, priority 2021, dated 2024)
pIC50: −log10 of the molar value.

What follows are molecules tested against BRAF (Homo sapiens (Human), UniProt P15056) (assay: BRAF kinase activity assay (ADP-Glo)). Conditions: Table 5; read-out: Kinase IC50 (nM) BRAF.
Assay type: biochemical
Method in brief: (§1)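 Compound was tested at nine concentrations (0.01–100 nM, 0.05% DMSO final) against BRAF or CRAF phosphorylating MEK1 with ATP, for 2 h at 30 °C. ADP formed was read by ADP-Glo luminescence, and % inhibition was fitted with a four-parameter log(agonist) model to obtain IC50.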

Chain of BRAF (P15056 whole entry): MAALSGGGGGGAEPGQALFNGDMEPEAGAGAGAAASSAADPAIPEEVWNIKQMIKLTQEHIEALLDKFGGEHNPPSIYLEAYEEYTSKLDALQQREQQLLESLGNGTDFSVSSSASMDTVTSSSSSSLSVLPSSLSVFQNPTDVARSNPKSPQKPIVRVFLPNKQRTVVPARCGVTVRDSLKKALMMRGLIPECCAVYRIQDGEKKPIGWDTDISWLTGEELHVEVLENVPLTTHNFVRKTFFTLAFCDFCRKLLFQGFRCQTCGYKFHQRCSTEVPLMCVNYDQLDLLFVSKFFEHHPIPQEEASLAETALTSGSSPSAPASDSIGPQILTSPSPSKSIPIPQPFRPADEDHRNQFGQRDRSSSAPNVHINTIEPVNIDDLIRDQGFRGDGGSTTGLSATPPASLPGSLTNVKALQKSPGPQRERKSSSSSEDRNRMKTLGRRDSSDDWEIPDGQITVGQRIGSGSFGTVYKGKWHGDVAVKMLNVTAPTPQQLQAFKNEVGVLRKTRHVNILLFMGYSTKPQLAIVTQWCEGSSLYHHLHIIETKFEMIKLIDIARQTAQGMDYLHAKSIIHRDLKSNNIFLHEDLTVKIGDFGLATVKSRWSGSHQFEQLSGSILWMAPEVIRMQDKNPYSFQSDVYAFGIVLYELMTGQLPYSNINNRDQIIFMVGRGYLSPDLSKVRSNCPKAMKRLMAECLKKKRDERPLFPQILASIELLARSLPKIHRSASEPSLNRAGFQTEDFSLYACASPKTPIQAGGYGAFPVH

IC50 [nM] | SMILES
1 to 10 | Cc1c(Cl)cccc1S(=O)(=O)Nc1cccc(Nc2ncnc3ccc(-n4cnc5ccccc54)nc23)c1F [Example 240]

Same assay, conditions: read-out: Kinase IC50 (nM) BRAF

IC50 [nM] | SMILES
1 to 10 | COc1ccc(S(=O)(=O)Nc2ccc(F)c(Nc3ncnc4ccc(-n5cnc6c(N)cccc65)nc34)c2F)c(C)c1 [Ex 76]
1 to 10 | Nc1ncnc2c1ncn2-c1ccc2ncnc(Nc3c(F)ccc(NS(=O)(=O)c4ccccc4Cl)c3F)c2n1 [Ex 89]
> 10 | CCc1ccc(S(=O)(=O)Nc2ccc(F)c(Nc3ncnc4ccc(-n5cnc6ccccc65)nc34)c2F)cc1 [Example 10]

More lines, now with the values behind:

SMILES | IC50 [nM]
COc1ccc(S(=O)(=O)Nc2ccc(F)c(Nc3ncnc4ccc(-c5cnn6ccccc56)nc34)c2F)c(C)c1 [Ex 73] | > 10
COc1ccc(S(=O)(=O)Nc2ccc(F)c(Nc3ncnc4ccc(-n5cnc6ccccc65)nc34)c2F)cc1 [Example 1] | 1 to 10
O=S(=O)(Nc1ccc(F)c(Nc2ncnc3ccc(-n4cnc5ccccc54)nc23)c1F)c1ccccc1Cl [Example 8] | 1 to 10

These molecules were tested against CRAF (Homo sapiens, UniProt P04049) (assay: CRAF kinase activity assay (ADP-Glo)). Conditions: Table 5; read-out: Kinase IC50 (nM) CRAF.
Assay type: biochemical
Method in brief: as §1

Chain of CRAF (P04049 whole entry, looked up): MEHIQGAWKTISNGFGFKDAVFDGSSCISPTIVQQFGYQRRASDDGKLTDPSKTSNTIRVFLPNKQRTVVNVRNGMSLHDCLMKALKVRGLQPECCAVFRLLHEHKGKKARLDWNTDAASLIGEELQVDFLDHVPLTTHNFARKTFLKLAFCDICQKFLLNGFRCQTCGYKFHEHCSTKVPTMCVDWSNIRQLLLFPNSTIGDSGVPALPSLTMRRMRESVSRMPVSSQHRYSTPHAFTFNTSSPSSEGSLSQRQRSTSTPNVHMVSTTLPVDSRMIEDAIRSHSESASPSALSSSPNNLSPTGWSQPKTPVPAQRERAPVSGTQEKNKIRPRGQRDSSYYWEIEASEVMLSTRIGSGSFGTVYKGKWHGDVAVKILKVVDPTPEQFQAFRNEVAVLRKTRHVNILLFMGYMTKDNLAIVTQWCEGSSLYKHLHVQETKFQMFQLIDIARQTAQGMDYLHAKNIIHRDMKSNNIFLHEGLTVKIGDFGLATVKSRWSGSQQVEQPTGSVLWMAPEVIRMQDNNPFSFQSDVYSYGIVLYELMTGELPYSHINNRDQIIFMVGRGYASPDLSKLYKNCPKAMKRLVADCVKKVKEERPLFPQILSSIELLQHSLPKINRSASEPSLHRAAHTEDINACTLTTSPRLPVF

IC50 [nM] | SMILES
10 to 50 | Cc1c(Cl)cccc1S(=O)(=O)Nc1cccc(Nc2ncnc3ccc(-n4cnc5ccccc54)nc23)c1F [Example 240]

Same assay, conditions: read-out: Kinase IC50 (nM) CRAF

IC50 [nM] | SMILES
10 to 50 | COc1ccc(S(=O)(=O)Nc2ccc(F)c(Nc3ncnc4ccc(-n5cnc6c(N)cccc65)nc34)c2F)c(C)c1 [Ex 76]
> 50 | Nc1ncnc2c1ncn2-c1ccc2ncnc(Nc3c(F)ccc(NS(=O)(=O)c4ccccc4Cl)c3F)c2n1 [Ex 89]
> 50 | CCc1ccc(S(=O)(=O)Nc2ccc(F)c(Nc3ncnc4ccc(-n5cnc6ccccc65)nc34)c2F)cc1 [Example 10]

Continued, molecule first:

SMILES | IC50 [nM]
COc1ccc(S(=O)(=O)Nc2ccc(F)c(Nc3ncnc4ccc(-c5cnn6ccccc56)nc34)c2F)c(C)c1 [Ex 73] | > 50
COc1ccc(S(=O)(=O)Nc2ccc(F)c(Nc3ncnc4ccc(-n5cnc6ccccc65)nc34)c2F)cc1 [Example 1] | 10 to 50
O=S(=O)(Nc1ccc(F)c(Nc2ncnc3ccc(-n4cnc5ccccc54)nc23)c1F)c1ccccc1Cl [Example 8] | < 10

The molecules below were run on pERK in HCT-116 cells (KRAS G13D) (assay: Phospho-ERK inhibition (AlphaLISA SureFire Ultra p-ERK 1/2), HCT116). Conditions: HCT116 cells, 1 h treatment.
Assay type: cell-based, human
Method in brief: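 p-ERK1/2 (Thr202/Tyr204) in lysates measured by AlphaLISA after 1 h compound exposure of overnight-plated cells (RPMI-1640, 5% FBS, 0.5% DMSO, ten concentrations, usually from 10 μM). Background from a trametinib control subtracted, inhibition normalised to vehicle, and IC50 fitted with a variable-slope four-parameter model.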

SMILES | pIC50
COc1ccc(S(=O)(=O)Nc2ccc(F)c(Nc3ncnc4ccc(-n5cnc6ccccc65)nc34)c2F)cc1 [Example 1] | 5.00 to 6.00
O=S(=O)(Nc1ccc(F)c(Nc2ncnc3ccc(-n4cnc5ccccc54)nc23)c1F)c1ccccc1Cl [Example 8] | 6.00 to 6.30
CCc1ccc(S(=O)(=O)Nc2ccc(F)c(Nc3ncnc4ccc(-n5cnc6ccccc65)nc34)c2F)cc1 [Example 10] | 4.52 to 5.00

Same assay, conditions: HCT116 cells, Table 5

pIC50 | SMILES
> 6.30 | Cc1c(Cl)cccc1S(=O)(=O)Nc1cccc(Nc2ncnc3ccc(-n4cnc5ccccc54)nc23)c1F [Example 240]

Same assay, conditions: HCT116 cells; Ymin in brackets

SMILES | HCT116 pERK Ymin % [%]
COc1ccc(S(=O)(=O)Nc2ccc(F)c(Nc3ncnc4ccc(-c5cnn6ccccc56)nc34)c2F)c(C)c1 [Ex 73] | 5
COc1ccc(S(=O)(=O)Nc2ccc(F)c(Nc3ncnc4ccc(-n5cnc6c(N)cccc65)nc34)c2F)c(C)c1 [Ex 76] | 8
Nc1ncnc2c1ncn2-c1ccc2ncnc(Nc3c(F)ccc(NS(=O)(=O)c4ccccc4Cl)c3F)c2n1 [Ex 89] | 8

Same assay, conditions: HCT116 cells; class symbol before the bracket

pIC50 | SMILES
5.00 to 6.00 | COc1ccc(S(=O)(=O)Nc2ccc(F)c(Nc3ncnc4ccc(-c5cnn6ccccc56)nc34)c2F)c(C)c1 [Ex 73]
> 6.30 | COc1ccc(S(=O)(=O)Nc2ccc(F)c(Nc3ncnc4ccc(-n5cnc6c(N)cccc65)nc34)c2F)c(C)c1 [Ex 76]
5.00 to 6.00 | Nc1ncnc2c1ncn2-c1ccc2ncnc(Nc3c(F)ccc(NS(=O)(=O)c4ccccc4Cl)c3F)c2n1 [Ex 89]

Same assay, conditions: lowest % inhibition value of the IC50 curve, HCT116

SMILES | HCT116 pERK Ymin % [%]
COc1ccc(S(=O)(=O)Nc2ccc(F)c(Nc3ncnc4ccc(-n5cnc6ccccc65)nc34)c2F)cc1 [Example 1] | 8
O=S(=O)(Nc1ccc(F)c(Nc2ncnc3ccc(-n4cnc5ccccc54)nc23)c1F)c1ccccc1Cl [Example 8] | −2.5
CCc1ccc(S(=O)(=O)Nc2ccc(F)c(Nc3ncnc4ccc(-n5cnc6ccccc65)nc34)c2F)cc1 [Example 10] | 1

Same assay, conditions: lowest value of the curve, HCT116, Table 5

SMILES | HCT116 pERK Ymin % [%]
Cc1c(Cl)cccc1S(=O)(=O)Nc1cccc(Nc2ncnc3ccc(-n4cnc5ccccc54)nc23)c1F [Example 240] | 7

Each molecule was assayed on pERK in SW480 cells (KRAS G12D) (assay: Phospho-ERK inhibition (AlphaLISA), SW480). Conditions: SW480 cells, 1 h treatment.
Assay type: cell-based, human
Protocol: All cancer cell lines (A375, A101D, A2058, RKO, HT29 SK-MEL 30, IPC298, HepG2, HCT-116, Lovo, SWV620, SW480, NCI-H358, NCI-H2122, Calu-6, NCIH2087, NCIH1755, NCIH1666 and Mewo) were obtained from ATCC and cultured in RPMI-1640 medium (Gibco) supplemented with 5% heat inactivated fetal bovine serum (FBS, Wisent) at 37° C. under 5% CO2. Cells were maintained in T175 flasks (Greiner). They were passaged by removing the culture medium, washing once in 10 mL of room temperature Phosphate Buffered Saline (PBS; Wisent) and incubating at 37° C. with 2 mL of 0.05% Trypsin (Thermo-Fisher). Trypsin was then inactivated by adding complete growth medium and the cells were then replated in a T175 culture dish at the appropriate dilution. All cell lines were routinely tested for mycoplasma contamination. Tissue type and mutational status of each cell line can be found in Table B.
AlphaLISA® SureFire® Ultra™ p-ERK 1/2 (Thr202/Tyr204) analysis was conducted on cells plated in 100 μL of complete RPMI-1640 growth medium in 96-well flat-bottomed transparent dishes (Costar) at a density indicated in Table C. Cells were maintained overnight at 37° C. under 5% CO2 before treatment with compounds' dilution series for one hour. The cell density in cells/cm^2 corresponds to cell number divided by the area of one well of a 96-well plate ([…]).
In a dilution series 100 μL/well of test substance dilution prepared in complete RPMI-1640 growth media was added to the cells. The dilution series is selected so that ten concentrations cover a range from 10 μM to 0.33 nM. If necessary the initial concentration of 10 μM is increased to 100 μM or lowered to 1 μM (as in the case of A375 and H1666 cells, which are generally more sensitive to the compounds) and further dilution is carried out accordingly. The final concentration of DMSO in the assay is set at 0.5%.
After treatment, media was removed and cells were lysed in 50 μL of 1× AlphaScreen Ultra Lysis Buffer (Perkin Elmer). The AlphaLISA® SureFire® Ultra™ p-ERK 1/2 (Thr202/Tyr2O4) (PerkinElmer) reactions were performed with 5 μL of cell lysate according to the manufacturer's specifications in 384-well proxyplates (Perkin Elmer) followed by overnight incubation of the reactions at room temperature in a humidified chamber. After completion of the reactions, the signals were recorded on an EnVision plate reader (Perkin Elmer) using built in AlphaLISA® settings.
The effect of each compound dilution on the pERK signal was expressed in % inhibition and calculated as follows. An internal 100% inhibition control ([…] trametinib, cat #HY-10999; MedChem Express; CAS #871700-17-3) was included in each plate and used as a measure of pERK background. First, the value obtained for trametinib was subtracted from each data point. The average of DMSO (vehicle) controls (set as 0% inhibition) was established and used to calculate % inhibition: % inhibition=100*(1-((pERK signalcompound)/(pERK signalDMSO)))
The ability of each compound to inhibit pERK signal was expressed as an IC50 value obtained by plotting the inhibition values for each data point of a dilution series and fitting the obtained curves using a log(agonist) versus response-variable slope (four parameters) function using GraphPadPrism (V7.0) or Dotmatics Screening Ultra platform.
When present, paradoxical pERK induction is inferred from the negative % inhibition values observed in the pERK IC50 curves of a compound.

SMILES | pIC50
COc1ccc(S(=O)(=O)Nc2ccc(F)c(Nc3ncnc4ccc(-n5cnc6ccccc65)nc34)c2F)cc1 [Example 1] | 5.00 to 6.00
O=S(=O)(Nc1ccc(F)c(Nc2ncnc3ccc(-n4cnc5ccccc54)nc23)c1F)c1ccccc1Cl [Example 8] | 6.00 to 6.30
CCc1ccc(S(=O)(=O)Nc2ccc(F)c(Nc3ncnc4ccc(-n5cnc6ccccc65)nc34)c2F)cc1 [Example 10] | 5.00 to 6.00

Same assay, conditions: SW480 cells, Table 5

pIC50 | SMILES
> 6.30 | Cc1c(Cl)cccc1S(=O)(=O)Nc1cccc(Nc2ncnc3ccc(-n4cnc5ccccc54)nc23)c1F [Example 240]

Same assay, conditions: SW480 cells; Ymin in brackets

SMILES | SW480 pERK Ymin % [%]
COc1ccc(S(=O)(=O)Nc2ccc(F)c(Nc3ncnc4ccc(-c5cnn6ccccc56)nc34)c2F)c(C)c1 [Ex 73] | −1
COc1ccc(S(=O)(=O)Nc2ccc(F)c(Nc3ncnc4ccc(-n5cnc6c(N)cccc65)nc34)c2F)c(C)c1 [Ex 76] | 6
Nc1ncnc2c1ncn2-c1ccc2ncnc(Nc3c(F)ccc(NS(=O)(=O)c4ccccc4Cl)c3F)c2n1 [Ex 89] | −3

Same assay, conditions: SW480 cells; class symbol before the bracket

pIC50 | SMILES
5.00 to 6.00 | COc1ccc(S(=O)(=O)Nc2ccc(F)c(Nc3ncnc4ccc(-c5cnn6ccccc56)nc34)c2F)c(C)c1 [Ex 73]
> 6.30 | COc1ccc(S(=O)(=O)Nc2ccc(F)c(Nc3ncnc4ccc(-n5cnc6c(N)cccc65)nc34)c2F)c(C)c1 [Ex 76]
5.00 to 6.00 | Nc1ncnc2c1ncn2-c1ccc2ncnc(Nc3c(F)ccc(NS(=O)(=O)c4ccccc4Cl)c3F)c2n1 [Ex 89]

Same assay, conditions: lowest % inhibition value of the IC50 curve, SW480

SMILES | SW480 pERK Ymin % [%]
COc1ccc(S(=O)(=O)Nc2ccc(F)c(Nc3ncnc4ccc(-n5cnc6ccccc65)nc34)c2F)cc1 [Example 1] | 4
O=S(=O)(Nc1ccc(F)c(Nc2ncnc3ccc(-n4cnc5ccccc54)nc23)c1F)c1ccccc1Cl [Example 8] | 4.8
CCc1ccc(S(=O)(=O)Nc2ccc(F)c(Nc3ncnc4ccc(-n5cnc6ccccc65)nc34)c2F)cc1 [Example 10] | 12

Same assay, conditions: lowest value of the curve, SW480, Table 5

SMILES | SW480 pERK Ymin %
Cc1c(Cl)cccc1S(=O)(=O)Nc1cccc(Nc2ncnc3ccc(-n4cnc5ccccc54)nc23)c1F [Example 240] | (−8) %
